{
  "source": "paper PMC11521937",
  "about": "“Expression and characterization of pantothenate energy‐coupling factor transporters as an anti‐infective drug target” (Protein Science : A Publication of the Protein Society, 2024)",
  "key": {"[1]": {"target": "ECF‐module (EcfTAA′) (Streptococcus pneumoniae, UniProt A0A0H2ZPG6+Q04HV7+Q97N51)", "sequence (Q04HV7 whole entry)": "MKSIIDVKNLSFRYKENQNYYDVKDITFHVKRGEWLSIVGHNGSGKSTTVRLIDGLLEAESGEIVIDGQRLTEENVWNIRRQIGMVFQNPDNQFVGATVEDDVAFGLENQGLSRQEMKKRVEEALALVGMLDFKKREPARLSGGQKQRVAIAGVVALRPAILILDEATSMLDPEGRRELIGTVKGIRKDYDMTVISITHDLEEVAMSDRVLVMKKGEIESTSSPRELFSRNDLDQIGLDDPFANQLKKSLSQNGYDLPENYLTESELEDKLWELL", "sequence (Q97N51 whole entry)": "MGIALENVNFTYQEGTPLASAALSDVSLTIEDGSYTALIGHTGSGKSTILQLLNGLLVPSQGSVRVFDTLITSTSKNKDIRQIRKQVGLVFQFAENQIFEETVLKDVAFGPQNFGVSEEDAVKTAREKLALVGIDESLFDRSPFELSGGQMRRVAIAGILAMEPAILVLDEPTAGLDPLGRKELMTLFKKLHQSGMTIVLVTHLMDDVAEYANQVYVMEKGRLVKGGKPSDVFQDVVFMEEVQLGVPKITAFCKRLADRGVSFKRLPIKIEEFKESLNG", "sequence (A0A0H2ZPG6 entry or part of it)": "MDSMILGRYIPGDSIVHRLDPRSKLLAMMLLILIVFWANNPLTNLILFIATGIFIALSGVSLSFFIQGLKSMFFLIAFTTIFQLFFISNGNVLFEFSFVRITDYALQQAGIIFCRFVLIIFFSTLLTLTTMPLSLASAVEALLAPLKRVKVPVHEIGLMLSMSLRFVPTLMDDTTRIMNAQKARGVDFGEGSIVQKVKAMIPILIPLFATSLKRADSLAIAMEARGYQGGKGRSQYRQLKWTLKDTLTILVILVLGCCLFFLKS", "assay": "SPR binding to immobilized ECF‐module", "description": "After identifying the optimal buffer and assessing the stability of the ECF transporter proteins, we proceeded to determine the binding affinity (K d) of small‐molecule inhibitors using SPR. This label‐free technique allows for the investigation of protein–ligand interactions in real time and requires protein immobilization (GE Healthcare Life Science, [2012]). […] The ECF‐PanT, ECF‐module, and ECF‐FolT2, each bearing a histidine tag, were immobilized on a high‐affinity poly‐nitrilotriacetic acid (poly‐NTA) sensor chip, which was initially activated using NiCl2. The His‐tagged proteins were then injected over the Ni^2+‐activated surface to strongly bind to the metal (Knecht et al., [2009]). The immobilization resonance unit (RU) levels were 12,000–15,000 for ECF‐PanT, 9000–12,000 for the ECF‐module, and 6000–9000 for ECF‐FolT2.\nIn this assay, we used HEPES buffer (10 mM HEPES, 50 mM NaCl, 50 μM EDTA, 0.05% (v/v) DDM, and a pH value of 7.5) as recommended by Xantec Bioanalytics, with a slight modification made to create a more favorable environment for the ECF proteins, enabling their stability to be maintained throughout the assay. Additionally, the protein was maintained in the buffer containing 5% (v/v) DMSO. For a more in‐depth description of the procedures, please refer to Appendix S1.\nSurface plasmon resonance (SPR)\nThe SPR binding studies were performed using a Reichert 4SPR surface plasmon resonance spectrometer (Reichert Technologies, Buffalo, NY, USA), and medium–density NTA derivatized polycarboxylate hydrogel NiHC200M sensor chips (XanTec Bioanalytics, Düsseldorf, Germany). The experimental procedure involved two rounds of nickel activation and one immobilization step at a concentration of 200 nM. The proteins ECF-module (92,56146 kDa), ECF-PanT (113,8745 kDa), and ECF-FolT2 (112,16316 kDa) were immobilized in flow cells 1, 2, and 3, respectively according to the standard protocol as provided by Xantec bioanalytics with a slight modification based on the recombinant proteins. The flow-cell 4 was left blank to serve as a reference.\nThe immobilization buffer employed for the immobilization process consisted of 10 mM HEPES with a pH of 7.5, 50 mM NaCl, 50 µM EDTA, and 0.05% DDM without DMSO. Following the immobilization step, for the binding study of the compounds, the running buffer was exchanged for the mentioned buffer with 5% v/v DMSO. This was done to ensure consistency in the percentage of DMSO present in the solutions containing the respective testing inhibitors, as these inhibitors were soluble in the DMSO solvent. By maintaining the same DMSO concentration, we aimed to minimize any potential solvent-related effects on the assay results. All running buffers were filtered and degassed before use.\nThe system was initially primed with 5 mM NiCl2 with an association and dissociation time of 2 min for each to activate the NTA sensor chip. Then, the recombinant proteins with a concentration of 200 nM were injected at a flow rate of 10 µL/min for 8 min. Finally, the baseline check with the running […]\nthe ECF-module, ECF-PanT, and ECF-FolT2, respectively.\nFirst, the calibration curve for correction of the DMSO effect was prepared; the concentrations were 3%, 3.5% 4%, 4.5%, 5%, 5.5%, 6%, 6.5%, and 7% v/v and were diluted with SPR buffer. Then, the […]\nconcentration of DMSO in all the samples was set to 5% v/v DMSO. The samples (200 µL) were loaded on a 96-well plate and were injected at a flow rate of 50 μL/min. Single-cycle kinetics were applied for KD determination. The association time was set to 60 s, and the dissociation phase was recorded for 120 s. For surface regeneration, 0.35 M EDTA (pH 8.5) and 0.1 M NaOH were used. Data processing and analysis were performed by Scrubber software (Version 2.0c, 2008, BioLogic Software). Sensorgrams were calculated by sequential subtractions of the corresponding curves obtained from the reference flow cell and the running buffer (blank). SPR responses were expressed in the resonance unit (RU). The KD […]"}, "[2]": {"assay": "In vitro MTT cytotoxicity assay, HepG2", "format": "cell-based, human", "settings": "human, read-out: Percent (%) cell viability at 100 μM, HepG2 cells", "method": "In vitro cytotoxicity evaluation […]\nwith minor modifications, which will be detailed below.\nTo obtain information regarding the toxicity of our compounds, their impact on the viability of human cells was investigated. HepG2 and A549 cells (2 × 10^4 cells per well) were seeded in 96-well, flat-bottomed culture plates in 100 µL culture medium (DMEM containing 10% fetal calve serum, 1% penicillin-streptomycin). Twenty-four hours after seeding the cells, medium was removed and replaced by medium containing test compounds in a final DMSO concentration of 1%. Compounds were tested in duplicates at a single concentration in 1% DMSO/medium. Epirubicin and doxorubicin were used as positive controls in serial dilutions starting from 10 µM, and rifampicin was used as a negative control (at 100 µM). The living cell mass was determined 48 h after treatment with compounds by adding 0.1 volumes of 3-(4,5-dimethylthiazol-2-yl)-2,5-diphenyltetrazolium bromide (MTT) solution (5 mg/mL sterile PBS) (Sigma, St. Louis, MO) to the wells. After incubating the cells for 30 min at 37 °C (atmosphere containing 5% CO2), medium was removed and MTT crystals were dissolved in 75 µL of a solution containing 10% SDS and 0.5% acetic acid in DMSO. The optical density (OD) of the samples was determined photometrically at 570 nm in a PHERAstar Omega plate reader (BMG labtech, Ortenberg, Germany). To obtain percent viability for each sample, their ODs were related to those of DMSO controls. At least two independent measurements were performed for each compound. The calculation of IC50 was performed using the nonlinear regression function of GraphPad Prism 10 (GraphPad Software, San Diego, CA, USA). […]"}},
  "note": "Read-outs that look alike come from different tables or passages of the source.",
  "data": [
    {"smiles": "O=C(O)c1cc(OCc2cccc3ccccc23)ccc1O", "note": "[Compound 1]", "values": [
      {"measurement": "Kd", "setting": "[1]", "result": "> 200", "unit": "µM"},
      {"measurement": "viability at 48 h, 100 µM", "setting": "[2]", "result": "20 ± 2", "unit": "%"}
    ]},
    {"smiles": "O=C(O)c1cc(OCc2ccc(Br)c3ccccc23)ccc1O", "note": "[Compound 2]", "values": [
      {"measurement": "Kd", "setting": "[1]", "result": "> 200", "unit": "µM"},
      {"measurement": "viability at 48 h, 100 µM", "setting": "[2]", "result": "23 ± 7", "unit": "%"}
    ]},
    {"smiles": "CC(C)(C)OC(=O)Nc1ccc(OCc2cccc3ccccc23)cc1C(=O)O", "note": "[Compound 3]", "values": [
      {"measurement": "Kd", "setting": "[1]", "result": "> 200", "unit": "µM"},
      {"measurement": "viability at 48 h, 100 µM", "setting": "[2]", "result": "49 ± 3", "unit": "%"}
    ]},
    {"smiles": "O=C(O)c1cccc(NCc2ccc(-c3ccc(Cl)cc3)o2)c1", "note": "[Compound 4]", "values": [
      {"measurement": "Kd", "setting": "[1]", "result": "> 200", "unit": "µM"},
      {"measurement": "viability at 48 h, 100 µM", "setting": "[2]; HepG2 cells", "result": "88 ± 9", "unit": "%"}
    ]},
    {"smiles": "O=C(O)c1cccc(NCc2ccc(-c3cccc(Cl)c3)o2)c1", "note": "[Compound 5]", "values": [
      {"measurement": "Kd", "setting": "[1]", "result": "> 200", "unit": "µM"},
      {"measurement": "viability at 48 h, 100 µM", "setting": "[2]; HepG2 cells", "result": "106 ± 8", "unit": "%"}
    ]},
    {"smiles": "O=C(O)c1cccc(NCc2ccc(-c3ccccc3Cl)o2)c1", "note": "[Compound 6]", "values": [
      {"measurement": "Kd", "setting": "[1]", "result": "> 200", "unit": "µM"},
      {"measurement": "viability at 48 h, 100 µM", "setting": "[2]; HepG2 cells", "result": "105 ± 3", "unit": "%"}
    ]}
  ]
}
